According to PubChem BioAssay AID651852 (Vanderbilt Specialized Chemistry Center, 2012):
Active and inactive are the calls of the source. The rule behind the calls is not given here.

target: Metabotropic glutamate receptor 5 (Rattus norvegicus) (UniProt P31424); experiment: PubChem AID 651852; conditions: HEK293 rat mGluR5 membranes, radioligand competition binding
Sequence (P31424 whole entry, looked up): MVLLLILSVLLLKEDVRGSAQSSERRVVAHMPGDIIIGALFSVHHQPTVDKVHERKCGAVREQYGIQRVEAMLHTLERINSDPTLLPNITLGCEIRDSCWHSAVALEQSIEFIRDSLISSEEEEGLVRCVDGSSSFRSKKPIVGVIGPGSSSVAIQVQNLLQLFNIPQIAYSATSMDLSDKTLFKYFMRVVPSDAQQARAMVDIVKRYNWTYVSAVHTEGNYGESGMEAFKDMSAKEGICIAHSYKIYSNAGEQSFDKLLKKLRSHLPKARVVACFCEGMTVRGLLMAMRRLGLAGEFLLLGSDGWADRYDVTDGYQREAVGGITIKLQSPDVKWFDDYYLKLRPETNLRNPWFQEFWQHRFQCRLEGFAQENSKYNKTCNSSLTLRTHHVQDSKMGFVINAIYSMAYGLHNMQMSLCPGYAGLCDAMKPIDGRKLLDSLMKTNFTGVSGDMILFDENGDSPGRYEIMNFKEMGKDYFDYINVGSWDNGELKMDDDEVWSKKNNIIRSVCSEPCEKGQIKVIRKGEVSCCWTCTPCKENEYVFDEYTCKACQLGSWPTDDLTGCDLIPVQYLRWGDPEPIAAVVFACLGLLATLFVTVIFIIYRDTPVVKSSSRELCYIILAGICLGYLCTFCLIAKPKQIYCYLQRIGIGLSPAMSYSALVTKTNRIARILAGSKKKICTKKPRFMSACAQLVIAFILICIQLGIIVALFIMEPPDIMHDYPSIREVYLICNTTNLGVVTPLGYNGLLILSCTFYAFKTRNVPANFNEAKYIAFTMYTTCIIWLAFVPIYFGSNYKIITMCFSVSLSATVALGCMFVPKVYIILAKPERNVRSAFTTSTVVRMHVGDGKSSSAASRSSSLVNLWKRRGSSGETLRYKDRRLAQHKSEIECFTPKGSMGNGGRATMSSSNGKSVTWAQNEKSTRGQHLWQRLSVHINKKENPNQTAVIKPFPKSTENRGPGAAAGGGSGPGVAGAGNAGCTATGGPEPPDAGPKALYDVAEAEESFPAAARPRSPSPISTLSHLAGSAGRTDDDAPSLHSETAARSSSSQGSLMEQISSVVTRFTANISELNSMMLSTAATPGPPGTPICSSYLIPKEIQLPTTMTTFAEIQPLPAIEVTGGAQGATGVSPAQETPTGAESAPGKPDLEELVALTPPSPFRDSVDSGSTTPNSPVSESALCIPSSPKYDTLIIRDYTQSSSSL

Row | IC50 | SMILES
1 | > 30 µM (inactive) | CS(=O)(=O)N(CC(=O)NCC1CC1)c1cc(C(F)(F)F)ccc1Cl
2 | > 30 µM (inactive) | O=S(=O)(c1ccc(C#Cc2cccc(F)c2)cc1)N1CCOCC1
3 | > 30 µM (inactive) | O=S(=O)(c1ccc(F)cc1)N1CCCC(c2nc(-c3ccc(F)cc3)no2)C1 (stereo not drawn)
